# Reference: paper PMC6934184, “Selective DNA-PKcs inhibition extends the therapeutic index of localized radiotherapy and chemotherapy” (The Journal of Clinical Investigation, 2019)
# Molecular target: T1, ACVR1 (ALK2) R206H (Homo sapiens, UniProt Q04771, R206H)
# T1 construct: purchased Thermo Fisher Scientific (Life Technologies) SelectScreen
# Assay: SelectScreen LanthaScreen
# Format: binding
# Conditions: read-out: % displacement
# How it was run: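 Percent values come from Thermo SelectScreen profiling of NU5455, combining activity and binding assays. CSF1R was run in Z'LYTE format at Km app ATP, and CAMK1 in Adapta format with ATP listed at 10.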
# T1 sequence (Q04771 21-509 R206H): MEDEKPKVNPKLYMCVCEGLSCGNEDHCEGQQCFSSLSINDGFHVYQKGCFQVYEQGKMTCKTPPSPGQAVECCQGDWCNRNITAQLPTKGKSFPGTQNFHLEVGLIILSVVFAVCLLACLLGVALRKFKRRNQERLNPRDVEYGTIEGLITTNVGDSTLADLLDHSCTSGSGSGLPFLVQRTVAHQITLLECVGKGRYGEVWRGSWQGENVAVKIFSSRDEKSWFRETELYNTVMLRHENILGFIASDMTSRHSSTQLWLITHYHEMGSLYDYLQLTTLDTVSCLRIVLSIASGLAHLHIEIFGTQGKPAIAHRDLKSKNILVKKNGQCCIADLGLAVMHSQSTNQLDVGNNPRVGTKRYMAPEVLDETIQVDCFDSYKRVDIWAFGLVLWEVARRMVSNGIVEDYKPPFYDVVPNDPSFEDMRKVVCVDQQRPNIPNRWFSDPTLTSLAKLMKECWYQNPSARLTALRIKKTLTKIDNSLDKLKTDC
structure (smiles),measurement,value
CN(C(=O)CN1CCOCC1)c1ccc2sc3c(-c4cccc5c(=O)cc(N6CC7CCC(C6)O7)oc45)cccc3c2c1 [NU5455],inhibition at 1 µM,12.6%
